# Test results published in patent US8623998B2, “Method of production of polyanionic drug-carrier conjugates” (priority 2008, dated 2014).
# Test system: P388 leukemia
# Assay: Survival of mice with P388 leukemia treated with methotrexate-fibrinogen conjugate
# Assay type: in vivo
# Settings: dosage of methotrexate 40 mg/kg
# Protocol: Table of survival of mice with P388 leukemia treated with methotrexate-fibrinogen conjugate. Dosage of methotrexate 40 mg/kg.
# S—number of mice with no leukemia detected on the 60th day of the experiment (mice considered cured) L—number of mice which died before the control ILS—ILS increase of life span Conjugates F-MTX were obtained in the reaction of fibrinogen glycation with fructose. Conjugates G-MTX were obtained in the reaction of fibrinogen glycation with glucose. Glycation was carried out according to the high temperature procedure.
# Table, of survival of, mice with P388 leukemia treated with methotrexate fibrinogen conjugate. Dosage of methotrexate 40 mg/kg.
smiles,measurement,setting,value
"CN(Cc1cnc2nc(N)nc(N)c2n1)c1ccc(C(=O)N[C@@H](CCC(=O)O)C(=O)O)cc1 [Methotrexat, methotrexate]",ILS (%) increase of life span,,36%
same,Mean survival rate,experiment ended on 60th day,15.0
